The source of these data is BindingDB's records for doi:10.1021/jm9508696 (Sandoz Research Institute, 1996).

One assay concerns the target T1, Dimer of Gag-Pol polyprotein [489-587] (Human immunodeficiency virus 1, UniProt P12497).
T1 construct: 489-587
Briefly: Protease Inhibition Assay.
Conditions: not given
The procedure:
Enzymatic activity was measured by following cleavage of the substrate H-Lys-Ala-Arg-Val-Leu-pNph-Glu-Ala-Nle-NH2. Products of the cleavage reaction were quantified by HPLC detection
Consider `COc1ccc(CN[C@@H](C(=O)N[C@H]2c3ccccc3C[C@H]2O)[C@H](O)[C@H](Cc2ccccc2)NC(=O)[C@@H](NC(=O)CCc2ccc(OC)c(O)c2)C(C)(C)C)cc1` [(2R,3R,4S)-3-hydroxy-N-[(1S,2R)-2-hydroxy-2,3-dihydro-1H-inden-1-yl]-4-[(2S)-2-[3-(3-hydroxy-4-methoxyphenyl)propanamido]-3,3-dimethylbutanamido]-2-{[(4-methoxyphenyl)methyl]amino}-5-phenylpentanamide], for which the Ki came out at 7.7 nM. That is a single-digit nanomolar value.

In turn, `COc1ccc(CN[C@@H](C(=O)N[C@H]2c3ccccc3C[C@H]2O)[C@H](O)[C@H](Cc2ccccc2)NC(=O)[C@@H](NC(=O)CSc2nncn2C)C(C)(C)C)cc1` [(2R,3R,4S)-4-[(2S)-3,3-dimethyl-2-{2-[(4-methyl-4H-1,2,4-triazol-3-yl)sulfanyl]acetamido}butanamido]-3-hydroxy-N-[(1S,2R)-2-hydroxy-2,3-dihydro-1H-inden-1-yl]-2-{[(4-methoxyphenyl)methyl]amino}-5-phenylpentanamide] displayed a Ki of 5.8 nM.

Compound `COc1ccc(CN[C@@H](C(=O)N[C@H]2c3ccccc3C[C@H]2O)[C@H](O)[C@H](Cc2ccccc2)NC(=O)[C@@H](NC(=O)CSc2nnc(C)s2)C(C)(C)C)cc1` [(2R,3R,4S)-4-[(2S)-3,3-dimethyl-2-{2-[(5-methyl-1,3,4-thiadiazol-2-yl)sulfanyl]acetamido}butanamido]-3-hydroxy-N-[(1S,2R)-2-hydroxy-2,3-dihydro-1H-inden-1-yl]-2-{[(4-methoxyphenyl)methyl]amino}-5-phenylpentanamide] returned a Ki of 8 nM.

In the case of `COc1ccc(CN[C@@H](C(=O)N[C@H]2c3ccccc3C[C@H]2O)[C@H](O)[C@H](Cc2ccccc2)NC(=O)[C@@H](NC(=O)/C=C/c2ccc(OC)c(O)c2)C(C)(C)C)cc1` [(2R,3R,4S)-3-hydroxy-N-[(1S,2R)-2-hydroxy-2,3-dihydro-1H-inden-1-yl]-4-[(2S)-2-[(2E)-3-(3-hydroxy-4-methoxyphenyl)prop-2-enamido]-3,3-dimethylbutanamido]-2-{[(4-methoxyphenyl)methyl]amino}-5-phenylpentanamide], the affinity corresponds to a Ki of 5.8 nM.

As for `COc1ccc(CN[C@@H](C(=O)N[C@H]2c3ccccc3C[C@H]2O)[C@H](O)[C@H](Cc2ccccc2)NC(=O)[C@@H](NC(=O)OC(C)(C)C)C(C)(C)C)cc1` [tert-butyl N-[(1S)-1-{[(2S,3R,4R)-3-hydroxy-4-{[(1S,2R)-2-hydroxy-2,3-dihydro-1H-inden-1-yl]carbamoyl}-4-{[(4-methoxyphenyl)methyl]amino}-1-phenylbutan-2-yl]carbamoyl}-2,2-dimethylpropyl]carbamate], the Ki came out at 210 nM.

Take `COc1ccc(CN[C@@H](C(=O)N[C@H]2c3ccccc3C[C@H]2O)[C@H](O)[C@H](Cc2ccccc2)NC(=O)[C@@H](NC(=O)/C=C/c2ccc(OC)cc2O)C(C)(C)C)cc1` [(2R,3R,4S)-3-hydroxy-N-[(1S,2R)-2-hydroxy-2,3-dihydro-1H-inden-1-yl]-4-[(2S)-2-[(2E)-3-(2-hydroxy-4-methoxyphenyl)prop-2-enamido]-3,3-dimethylbutanamido]-2-{[(4-methoxyphenyl)methyl]amino}-5-phenylpentanamide]: the affinity, expressed as Ki, was 18 nM. Against the preceding compound, the Ki is about 12-fold lower.

As to `CC(C)(C)[C@H](NC(=O)OCc1ccccc1)C(=O)N[C@@H](Cc1ccccc1)[C@@H](O)[C@@H](NCc1ccc(CNC(=O)CCc2nc3ccccc3[nH]2)cc1)C(=O)N[C@H]1c2ccccc2C[C@H]1O` [benzyl N-[(1S)-1-{[(2S,3R,4R)-4-{[(4-{[3-(1H-1,3-benzodiazol-2-yl)propanamido]methyl}phenyl)methyl]amino}-3-hydroxy-4-{[(1S,2R)-2-hydroxy-2,3-dihydro-1H-inden-1-yl]carbamoyl}-1-phenylbutan-2-yl]carbamoyl}-2,2-dimethylpropyl]carbamate], the Ki came to 4.1 nM.

Compound `COc1ccc(CN[C@@H](C(=O)N[C@H]2c3ccccc3C[C@H]2O)[C@H](O)[C@H](Cc2ccccc2)NC(=O)[C@@H](NC(=O)CCc2ccccc2O)C(C)(C)C)cc1` [(2R,3R,4S)-3-hydroxy-N-[(1S,2R)-2-hydroxy-2,3-dihydro-1H-inden-1-yl]-4-[(2S)-2-[3-(2-hydroxyphenyl)propanamido]-3,3-dimethylbutanamido]-2-{[(4-methoxyphenyl)methyl]amino}-5-phenylpentanamide] displayed a Ki of 13 nM.

Still in this assay, the particulars now being: pH 6.25; 37 °C.
`COc1ccc(CN[C@@H](C(=O)N[C@H]2c3ccccc3C[C@H]2O)[C@H](O)[C@H](Cc2ccccc2)NC(=O)C(CC(=O)O)NC(=O)OCc2ccccc2)cc1` (stereo partly drawn) [3-{[(benzyloxy)carbonyl]amino}-3-{[(2S,3R,4R)-3-hydroxy-4-{[(1S,2R)-2-hydroxy-2,3-dihydro-1H-inden-1-yl]carbamoyl}-4-{[(4-methoxyphenyl)methyl]amino}-1-phenylbutan-2-yl]carbamoyl}propanoic acid] showed a Ki of 22 nM. This lies in the double-digit nanomolar range.

Compound `CC(C)(C)OC(=O)N[C@@H](Cc1ccccc1)[C@@H](O)[C@@H](NCc1ccc(OCCO)cc1)C(=O)NCc1ccccc1` [tert-butyl N-[(2S,3R,4R)-4-(benzylcarbamoyl)-3-hydroxy-4-({[4-(2-hydroxyethoxy)phenyl]methyl}amino)-1-phenylbutan-2-yl]carbamate] returned a Ki of 1200 nM.

For the compound `CC(C)(C)OC(=O)N[C@@H](Cc1ccccc1)[C@@H](O)[C@@H](NCc1ccc(CNC(=O)Nc2ccccc2)cc1)C(=O)N[C@H]1c2ccccc2C[C@H]1O` [tert-butyl N-[(2S,3R,4R)-3-hydroxy-4-{[(1S,2R)-2-hydroxy-2,3-dihydro-1H-inden-1-yl]carbamoyl}-1-phenyl-4-{[(4-{[(phenylcarbamoyl)amino]methyl}phenyl)methyl]amino}butan-2-yl]carbamate], the affinity corresponds to a Ki of 33 nM.

With `CC(C)(C)OC(=O)N[C@@H](Cc1ccccc1)[C@@H](O)[C@@H](NCc1ccc(OCCO)cc1)C(=O)N[C@H]1c2ccccc2C[C@H]1O` [tert-butyl N-[(2S,3R,4R)-3-hydroxy-4-{[(1S,2R)-2-hydroxy-2,3-dihydro-1H-inden-1-yl]carbamoyl}-4-({[4-(2-hydroxyethoxy)phenyl]methyl}amino)-1-phenylbutan-2-yl]carbamate], the affinity, expressed as Ki, was 80 nM.

The compound `CCC(C)C(NC(=O)OCc1ccccc1)C(=O)N[C@@H](Cc1ccccc1)[C@@H](O)[C@@H](NCc1ccc(OC)cc1)C(=O)N[C@H]1c2ccccc2C[C@H]1O` (stereo partly drawn) [benzyl N-(1-{[(2S,3R,4R)-3-hydroxy-4-{[(1S,2R)-2-hydroxy-2,3-dihydro-1H-inden-1-yl]carbamoyl}-4-{[(4-methoxyphenyl)methyl]amino}-1-phenylbutan-2-yl]carbamoyl}-2-methylbutyl)carbamate] showed a Ki of 8.2 nM.

In the case of `COc1ccc(CN[C@@H](C(=O)N[C@H]2c3ccccc3C[C@H]2O)[C@H](O)[C@H](Cc2ccccc2)NC(=O)OC(C)(C)C)cc1` [(2R,3S,4S,1 S,2 R)-4-[[(1,1-Dimethylethoxy0carbonyl]amino]-3-hydroxy-2-[(4-methoxybenzyl)amino]-5-phenylpentan(2-hydroxy-1 indanyl)amide], the affinity corresponds to a Ki of 65 nM.

As for `CC(C)(C)OC(=O)N[C@@H](Cc1ccccc1)[C@@H](O)[C@@H](NCc1ccccc1)C(=O)NCc1ccccc1` [tert-butyl N-[(2S,3R,4R)-4-(benzylamino)-4-(benzylcarbamoyl)-3-hydroxy-1-phenylbutan-2-yl]carbamate], the Ki worked out at 2500 nM.

Turning to `COc1ccc(CN[C@@H](C(=O)N[C@H]2c3ccccc3C[C@H]2O)[C@H](O)[C@H](Cc2ccccc2)NC(=O)C(NC(=O)OCc2ccccc2)C(C)C)cc1` (stereo partly drawn) [benzyl N-(1-{[(2S,3R,4R)-3-hydroxy-4-{[(1S,2R)-2-hydroxy-2,3-dihydro-1H-inden-1-yl]carbamoyl}-4-{[(4-methoxyphenyl)methyl]amino}-1-phenylbutan-2-yl]carbamoyl}-2-methylpropyl)carbamate], affinity was put at a Ki of 8.1 nM. Compared with the last compound, the Ki is about 310-fold lower.

Compound `CCOc1ccc(CN[C@@H](C(=O)N[C@H]2c3ccccc3C[C@H]2O)[C@H](O)[C@H](Cc2ccccc2)NC(=O)OC(C)(C)C)cc1` [tert-butyl N-[(2S,3R,4R)-4-{[(4-ethoxyphenyl)methyl]amino}-3-hydroxy-4-{[(1S,2R)-2-hydroxy-2,3-dihydro-1H-inden-1-yl]carbamoyl}-1-phenylbutan-2-yl]carbamate] registered a Ki of 92 nM.

For the compound `CC(C)(C)OC(=O)N[C@@H](Cc1ccccc1)[C@@H](O)[C@@H](NCc1ccc(OCCN2CCOCC2)cc1)C(=O)N[C@H]1c2ccccc2C[C@H]1O` [tert-butyl N-[(2S,3R,4R)-3-hydroxy-4-{[(1S,2R)-2-hydroxy-2,3-dihydro-1H-inden-1-yl]carbamoyl}-4-[({4-[2-(morpholin-4-yl)ethoxy]phenyl}methyl)amino]-1-phenylbutan-2-yl]carbamate], the Ki is 130 nM.

Consider `COc1ccc(CN[C@@H](C(=O)N[C@H](C(=O)NCc2nc3ccccc3[nH]2)C(C)C)[C@H](O)[C@H](Cc2ccccc2)NC(=O)OC(C)(C)C)cc1` [tert-butyl N-[(2S,3R,4R)-4-{[(1S)-1-[(1H-1,3-benzodiazol-2-ylmethyl)carbamoyl]-2-methylpropyl]carbamoyl}-3-hydroxy-4-{[(4-methoxyphenyl)methyl]amino}-1-phenylbutan-2-yl]carbamate], for which the Ki was determined as 7.7 nM.

As for `CC(C)(C)OC(=O)N[C@@H](Cc1ccccc1)[C@@H](O)[C@@H](NCc1ccc(CNC(=O)CCc2nc3ccccc3[nH]2)cc1)C(=O)NCc1ccccc1` [tert-butyl N-[(2S,3R,4R)-4-{[(4-{[3-(1H-1,3-benzodiazol-2-yl)propanamido]methyl}phenyl)methyl]amino}-4-(benzylcarbamoyl)-3-hydroxy-1-phenylbutan-2-yl]carbamate], the Ki was found to be 680 nM.

The compound `COc1ccc(CN[C@@H](C(=O)N[C@H]2c3ccccc3C[C@H]2O)[C@H](O)[C@H](Cc2ccccc2)NC(=O)C(CC(N)=O)NC(=O)OCc2ccccc2)cc1` (stereo partly drawn) [benzyl N-(2-carbamoyl-1-{[(2S,3R,4R)-3-hydroxy-4-{[(1S,2R)-2-hydroxy-2,3-dihydro-1H-inden-1-yl]carbamoyl}-4-{[(4-methoxyphenyl)methyl]amino}-1-phenylbutan-2-yl]carbamoyl}ethyl)carbamate] came in with a Ki of 15 nM.
